Test results reported in ChEMBL document CHEMBL4420080, “Inhibitors of sox18 protein activity for treating angiogenesis- and/or lymphangiogenesis-related diseases” (2018).
Calls of active or inactive are those of the source. The rule behind the calls is not given here.

Assays:
L-type calcium channel = L-type calcium channel (Rattus norvegicus, UniProt P22002+P27732+Q02485); assay: Inhibition of rat L-type calcium channel at 10 uM relative to control; assay type: protein assay
Danio rerio [1] = assay: Induction of arterial and venous genes dys-regulation in zebrafish larvae harboring fli1 a:eGFP,-6.5kdrl:mCherry assessed as effect on dll4 gene expression at 1.5 uM dosed starting from 16 hpf and measured at 24 and 48 hpf by qRT-PCR analysis; assay type: functional, organism-based
[2] = target: Acetylcholine receptor subunit alpha (Homo sapiens) (UniProt P02708); assay: Inhibition of human nAChR alpha1 channel at 10 uM relative to control
Rattus norvegicus [3] = species on record: Rattus norvegicus; assay: Inhibition of rat imidazoline I2 receptor at 10 uM relative to control
[4] = target: Alpha-2A adrenergic receptor (Homo sapiens) (UniProt P08913); assay: Inhibition of human adrenergic alpha2A receptor at 10 uM relative to control
Chain of Alpha-2A adrenergic receptor (Homo sapiens) (P08913 whole entry): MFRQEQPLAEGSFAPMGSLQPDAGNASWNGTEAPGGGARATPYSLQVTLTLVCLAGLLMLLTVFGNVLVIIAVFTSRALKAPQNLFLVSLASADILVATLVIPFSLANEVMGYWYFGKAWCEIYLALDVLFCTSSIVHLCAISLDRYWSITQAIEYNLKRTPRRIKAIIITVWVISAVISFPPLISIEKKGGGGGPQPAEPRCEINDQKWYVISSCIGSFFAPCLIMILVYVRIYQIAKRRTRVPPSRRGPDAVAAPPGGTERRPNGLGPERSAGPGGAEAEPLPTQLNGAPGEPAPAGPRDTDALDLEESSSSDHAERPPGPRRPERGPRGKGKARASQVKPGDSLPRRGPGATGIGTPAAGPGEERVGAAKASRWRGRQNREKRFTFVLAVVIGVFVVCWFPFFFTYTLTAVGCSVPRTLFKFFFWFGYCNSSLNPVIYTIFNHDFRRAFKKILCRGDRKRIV

[5] = target: Glucocorticoid receptor (Homo sapiens) (UniProt P04150); assay: Inhibition of human glucocorticoid receptor at 10 uM relative to control
Danio rerio [6] = assay: Induction of arterial and venous genes dys-regulation in zebrafish larvae harboring fli1 a:eGFP,-6.5kdrl:mCherry assessed as effect on […] gene expression at 1.5 uM dosed starting from 16 hpf and measured at 24 and 48 hpf by qRT-PCR analysis; assay type: functional, organism-based
[7] = target: Glutamate NMDA receptor (Rattus norvegicus) (UniProt P35439+Q00959+Q00960+Q00961+Q62645+Q8VHN2+Q9R1M7); assay: Inhibition of rat NMDA glutamate receptor at 10 uM relative to control; assay type: protein-complex assay
[8] = target: Muscarinic acetylcholine receptor M3 (Homo sapiens) (UniProt P20309); assay: Inhibition of human muscarinic M3 receptor at 10 uM relative to control
Chain of Muscarinic acetylcholine receptor M3 (Homo sapiens) (P20309 whole entry, looked up): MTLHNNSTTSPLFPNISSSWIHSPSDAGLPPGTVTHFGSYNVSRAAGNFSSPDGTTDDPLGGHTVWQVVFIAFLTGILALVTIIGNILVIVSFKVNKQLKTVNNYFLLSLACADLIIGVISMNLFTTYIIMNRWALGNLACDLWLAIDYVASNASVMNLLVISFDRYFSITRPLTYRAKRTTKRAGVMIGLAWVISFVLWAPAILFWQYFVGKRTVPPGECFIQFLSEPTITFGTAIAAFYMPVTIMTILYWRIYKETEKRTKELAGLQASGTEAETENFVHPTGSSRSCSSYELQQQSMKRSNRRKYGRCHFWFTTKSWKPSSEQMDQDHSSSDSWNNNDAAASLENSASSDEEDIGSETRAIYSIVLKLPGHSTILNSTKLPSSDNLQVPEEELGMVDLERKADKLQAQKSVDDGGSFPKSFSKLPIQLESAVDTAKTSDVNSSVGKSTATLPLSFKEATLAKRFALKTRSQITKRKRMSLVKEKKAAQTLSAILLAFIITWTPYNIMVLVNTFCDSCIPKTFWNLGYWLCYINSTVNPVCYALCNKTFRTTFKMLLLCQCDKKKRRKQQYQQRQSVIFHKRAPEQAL

Rattus norvegicus [9] = species on record: Rattus norvegicus; assay: Inhibition of rat rolipram binding site at 10 uM relative to control
[10] = target: GABA-A receptor; anion channel (Rattus norvegicus) (UniProt O09028+P15431+P18506+P18508+P19969+P20236+P23574+P23576+P28471+P28473+P30191+P62813+P63079+P63138+Q91ZM7+Q9ES14); assay: Inhibition of rat GABAA channel flunitrazepam binding site at 10 uM relative to control; assay type: protein-complex assay
[11] = target: Transcription factor Jun (Homo sapiens) (UniProt P05412); assay: Inhibition of c-JUN in HUVEC assessed as reduction of c-JUN transcriptional activity by genome-wide RNA-seq and ChlP-seq analysis; assay type: cell-based
[12] = target: Histone deacetylase 3 (Homo sapiens) (UniProt O15379); assay: Inhibition of human HDAC3 at 10 uM relative to control
[13] = target: Protein deacetylase HDAC6 (Homo sapiens) (UniProt Q9UBN7); assay: Inhibition of human HDAC6 at 10 uM relative to control
[14] = target: Adenosine receptor A2a (Homo sapiens) (UniProt P29274); assay: Inhibition of human adenosine A2A receptor at 10 uM relative to control
Chain of Adenosine receptor A2a (Homo sapiens) (P29274 whole entry): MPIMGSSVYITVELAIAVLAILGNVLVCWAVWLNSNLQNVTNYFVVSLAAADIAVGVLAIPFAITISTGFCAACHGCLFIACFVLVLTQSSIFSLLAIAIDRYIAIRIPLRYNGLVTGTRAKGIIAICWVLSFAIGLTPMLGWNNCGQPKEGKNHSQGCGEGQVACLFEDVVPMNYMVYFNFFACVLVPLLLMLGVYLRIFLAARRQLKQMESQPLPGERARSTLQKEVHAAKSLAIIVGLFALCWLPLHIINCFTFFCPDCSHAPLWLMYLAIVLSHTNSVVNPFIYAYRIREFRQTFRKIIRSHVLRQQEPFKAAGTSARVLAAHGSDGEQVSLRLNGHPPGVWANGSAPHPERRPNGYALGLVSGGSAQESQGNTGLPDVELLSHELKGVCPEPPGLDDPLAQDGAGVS

[15] = target: Protein max (Homo sapiens) (UniProt P61244); assay: Inhibition of MAX in HUVEC assessed as reduction of MAX transcriptional activity by genome-wide RNA-seq and ChlP-seq analysis; assay type: cell-based
Chain of Protein max (Homo sapiens) (P61244 whole entry): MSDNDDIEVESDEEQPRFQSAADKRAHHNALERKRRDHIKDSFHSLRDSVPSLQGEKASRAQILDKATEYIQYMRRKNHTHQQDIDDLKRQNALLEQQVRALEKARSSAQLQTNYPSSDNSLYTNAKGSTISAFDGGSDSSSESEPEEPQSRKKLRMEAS

[16] = target: NAD-dependent protein deacetylase sirtuin-1 (Homo sapiens) (UniProt Q96EB6); assay: Inhibition of human Sirtuin1 at 10 uM relative to control
Chain of NAD-dependent protein deacetylase sirtuin-1 (Homo sapiens) (Q96EB6 whole entry): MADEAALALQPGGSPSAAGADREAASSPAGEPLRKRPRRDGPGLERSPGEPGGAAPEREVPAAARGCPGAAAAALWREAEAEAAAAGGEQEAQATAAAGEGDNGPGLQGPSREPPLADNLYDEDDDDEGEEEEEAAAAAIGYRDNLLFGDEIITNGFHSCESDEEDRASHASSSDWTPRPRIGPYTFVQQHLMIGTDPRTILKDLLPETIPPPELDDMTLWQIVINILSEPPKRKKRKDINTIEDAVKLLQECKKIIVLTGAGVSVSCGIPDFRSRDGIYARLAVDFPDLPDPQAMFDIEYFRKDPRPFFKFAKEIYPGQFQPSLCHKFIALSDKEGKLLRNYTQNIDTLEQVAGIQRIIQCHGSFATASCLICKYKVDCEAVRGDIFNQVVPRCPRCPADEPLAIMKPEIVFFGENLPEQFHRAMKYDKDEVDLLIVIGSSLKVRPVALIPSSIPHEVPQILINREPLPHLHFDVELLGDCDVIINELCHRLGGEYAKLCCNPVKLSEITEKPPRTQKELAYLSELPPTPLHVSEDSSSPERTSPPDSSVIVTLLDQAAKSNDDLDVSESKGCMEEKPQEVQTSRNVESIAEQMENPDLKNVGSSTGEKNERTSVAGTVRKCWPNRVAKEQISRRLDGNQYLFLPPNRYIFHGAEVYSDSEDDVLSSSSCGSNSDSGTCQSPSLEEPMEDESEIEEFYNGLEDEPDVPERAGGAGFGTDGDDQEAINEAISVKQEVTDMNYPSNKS

[17] = target: Transcriptional repressor CTCF (Homo sapiens) (UniProt P49711); assay: Inhibition of CTCF in HUVEC assessed as reduction of CTCF transcriptional activity by genome-wide RNA-seq and ChlP-seq analysis; assay type: cell-based
Mus musculus = species on record: Mus musculus; assay: Inhibition of mouse phorbol ester receptor at 10 uM relative to control
Danio rerio [18] = assay: Induction of arterial and venous genes dys-regulation in zebrafish larvae harboring fli1 a:eGFP,-6.5kdrl:mCherry assessed as effect on hey2 gene expression at 1.5 uM dosed starting from 16 hpf and measured at 24 and 48 hpf by qRT-PCR analysis; assay type: functional, organism-based
Cricetinae = assay: Inhibition of hamster KATP channel at 10 uM relative to control
Danio rerio [19] = assay: Induction of arterial and venous genes dys-regulation in zebrafish larvae harboring fli1 a:eGFP,-6.5kdrl:mCherry assessed as effect on Ilk1 gene expression at 1.5 uM dosed starting from 16 hpf and measured at 24 and 48 hpf by qRT-PCR analysis; assay type: functional, organism-based
[20] = target: T1, Transcription factor SOX-18 (Mus musculus) (UniProt P43680); assay: Competitive binding affinity to full-length mouse SOX18 expressed in Sf9 cells assessed as reduction in SOX1 8- DNA binding using FAM-labelled Prox1 -DNA element at 1 to 1000 uM incubated for 5 mins in dark at room temperature, 10 mins at 37 degC and 30 mins at room temperature by fluorescence polarization assay
T1 sequence (whole entry): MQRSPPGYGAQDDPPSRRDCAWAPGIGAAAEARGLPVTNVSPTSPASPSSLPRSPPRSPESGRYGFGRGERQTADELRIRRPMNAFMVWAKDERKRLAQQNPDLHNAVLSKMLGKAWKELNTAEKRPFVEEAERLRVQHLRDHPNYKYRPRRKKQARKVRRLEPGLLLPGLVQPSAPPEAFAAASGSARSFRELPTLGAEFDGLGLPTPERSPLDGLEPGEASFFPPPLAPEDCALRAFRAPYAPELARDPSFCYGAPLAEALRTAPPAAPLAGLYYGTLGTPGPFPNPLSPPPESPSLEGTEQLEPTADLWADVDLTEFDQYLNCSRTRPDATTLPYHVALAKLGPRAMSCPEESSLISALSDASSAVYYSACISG

[21] = Critical micellar concentration of the compound; assay type: physicochemical
[22] = target: Protein c-Fos (Homo sapiens) (UniProt P01100); assay: Inhibition of c-FOS in HUVEC assessed as reduction of c-FOS transcriptional activity by genome-wide RNA-seq and ChlP-seq analysis; assay type: cell-based
[23] = target: Histone deacetylase 4 (Homo sapiens) (UniProt P56524); assay: Inhibition of human HDAC4 at 10 uM relative to control
Chain of Histone deacetylase 4 (Homo sapiens) (P56524 whole entry): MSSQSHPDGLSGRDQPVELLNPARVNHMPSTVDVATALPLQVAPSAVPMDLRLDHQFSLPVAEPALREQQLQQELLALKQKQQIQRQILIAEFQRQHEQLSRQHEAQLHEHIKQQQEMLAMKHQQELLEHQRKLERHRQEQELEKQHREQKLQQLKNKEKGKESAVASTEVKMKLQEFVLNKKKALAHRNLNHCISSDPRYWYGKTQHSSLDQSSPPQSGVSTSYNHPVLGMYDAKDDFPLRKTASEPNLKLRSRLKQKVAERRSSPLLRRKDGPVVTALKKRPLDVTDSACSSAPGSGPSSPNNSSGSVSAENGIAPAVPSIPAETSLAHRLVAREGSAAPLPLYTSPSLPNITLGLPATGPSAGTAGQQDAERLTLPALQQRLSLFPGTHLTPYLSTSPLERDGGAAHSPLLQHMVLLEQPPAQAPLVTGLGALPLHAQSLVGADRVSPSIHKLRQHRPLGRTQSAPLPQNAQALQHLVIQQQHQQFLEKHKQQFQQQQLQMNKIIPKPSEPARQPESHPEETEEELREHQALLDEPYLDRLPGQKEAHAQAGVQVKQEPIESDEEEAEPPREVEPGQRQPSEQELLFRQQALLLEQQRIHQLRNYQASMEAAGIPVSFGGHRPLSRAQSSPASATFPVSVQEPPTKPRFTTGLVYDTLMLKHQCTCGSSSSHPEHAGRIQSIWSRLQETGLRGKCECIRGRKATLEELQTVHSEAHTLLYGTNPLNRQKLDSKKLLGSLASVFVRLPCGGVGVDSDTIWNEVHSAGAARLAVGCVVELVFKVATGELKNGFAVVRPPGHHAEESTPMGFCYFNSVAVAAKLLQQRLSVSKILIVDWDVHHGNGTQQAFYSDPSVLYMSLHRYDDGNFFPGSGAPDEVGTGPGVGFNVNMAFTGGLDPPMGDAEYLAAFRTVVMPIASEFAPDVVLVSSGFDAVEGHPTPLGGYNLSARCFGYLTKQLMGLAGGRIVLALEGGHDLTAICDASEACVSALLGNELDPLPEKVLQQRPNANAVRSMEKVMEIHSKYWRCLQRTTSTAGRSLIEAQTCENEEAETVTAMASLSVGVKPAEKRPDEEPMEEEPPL

4T1.2 = assay: Inhibition of tumor induced lymphangiogenesis response in mouse 4T1.2 cells implanted BALB/c mouse assessed as reduction in tumor associated lymphatic vessels at 25 mg/kg/day for 10 days by PROX1/podoplanin detection based immunofluorescent staining relative to control; assay type: functional; details: 4T1.2, 240 h
[24] = target: D(2) dopamine receptor (Homo sapiens) (UniProt P14416); assay: Inhibition of human dopamine D2S receptor at 10 uM relative to control
[25] = Plasma concentration in BALB/c mouse xenografted with mouse 4T1.2 cells at 25 mg/kg/day for 10 days measured at day 7; assay type: ADME, organism-based
[26] = target: Estrogen receptor (Homo sapiens) (UniProt P03372); assay: Inhibition of human ERalpha at 10 uM relative to control
Chain of Estrogen receptor (Homo sapiens) (P03372 whole entry): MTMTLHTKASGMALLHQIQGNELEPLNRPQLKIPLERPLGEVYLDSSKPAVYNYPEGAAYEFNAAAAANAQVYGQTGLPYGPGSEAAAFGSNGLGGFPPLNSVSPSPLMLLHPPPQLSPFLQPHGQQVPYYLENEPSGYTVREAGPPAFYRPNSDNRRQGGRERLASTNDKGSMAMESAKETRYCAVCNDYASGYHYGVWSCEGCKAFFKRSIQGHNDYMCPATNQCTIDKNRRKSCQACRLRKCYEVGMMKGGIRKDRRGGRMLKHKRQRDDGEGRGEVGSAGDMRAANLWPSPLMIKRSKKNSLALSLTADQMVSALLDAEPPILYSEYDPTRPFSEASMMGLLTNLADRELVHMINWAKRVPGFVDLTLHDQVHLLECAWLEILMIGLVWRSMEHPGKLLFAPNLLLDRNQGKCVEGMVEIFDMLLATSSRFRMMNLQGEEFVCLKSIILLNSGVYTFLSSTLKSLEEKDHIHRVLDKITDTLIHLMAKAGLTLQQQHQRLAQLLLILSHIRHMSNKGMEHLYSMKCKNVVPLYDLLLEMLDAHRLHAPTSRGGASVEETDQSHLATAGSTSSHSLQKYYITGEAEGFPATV

[27] = target: Thyroid Hormone Receptor (Rattus norvegicus) (UniProt P18113+P63059); assay: Inhibition of rat thyroid hormone receptor at 10 uM relative to control; assay type: protein assay
Chain of Thyroid Hormone Receptor (Rattus norvegicus) (P18113 whole entry, looked up): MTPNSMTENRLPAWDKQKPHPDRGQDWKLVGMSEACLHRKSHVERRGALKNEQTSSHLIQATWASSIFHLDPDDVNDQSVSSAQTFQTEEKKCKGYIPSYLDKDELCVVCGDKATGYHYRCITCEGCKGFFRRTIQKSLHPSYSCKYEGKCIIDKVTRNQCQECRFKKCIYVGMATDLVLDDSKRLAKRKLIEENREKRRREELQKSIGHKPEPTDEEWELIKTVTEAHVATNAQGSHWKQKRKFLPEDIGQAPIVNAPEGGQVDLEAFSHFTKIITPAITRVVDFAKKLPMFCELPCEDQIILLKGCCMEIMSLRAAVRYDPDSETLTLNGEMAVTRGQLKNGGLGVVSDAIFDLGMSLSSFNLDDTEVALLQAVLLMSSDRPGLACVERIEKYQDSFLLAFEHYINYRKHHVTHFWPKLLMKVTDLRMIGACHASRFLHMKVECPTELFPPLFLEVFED
Chain of Thyroid Hormone Receptor (Rattus norvegicus) (P63059 whole entry, looked up): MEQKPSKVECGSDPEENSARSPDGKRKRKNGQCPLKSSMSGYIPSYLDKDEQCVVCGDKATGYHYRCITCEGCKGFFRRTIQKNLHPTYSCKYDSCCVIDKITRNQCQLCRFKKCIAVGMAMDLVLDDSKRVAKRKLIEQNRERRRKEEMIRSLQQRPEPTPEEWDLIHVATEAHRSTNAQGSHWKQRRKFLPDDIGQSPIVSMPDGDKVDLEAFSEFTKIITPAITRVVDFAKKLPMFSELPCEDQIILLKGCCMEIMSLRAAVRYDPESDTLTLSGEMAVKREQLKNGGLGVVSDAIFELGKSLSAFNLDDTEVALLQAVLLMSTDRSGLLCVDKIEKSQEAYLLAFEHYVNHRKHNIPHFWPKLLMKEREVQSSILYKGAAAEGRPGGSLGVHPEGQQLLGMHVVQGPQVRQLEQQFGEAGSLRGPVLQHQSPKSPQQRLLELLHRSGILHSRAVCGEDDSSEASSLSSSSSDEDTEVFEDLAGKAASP

Danio rerio [28] = assay: Induction of arterial and venous genes dys-regulation in zebrafish larvae harboring fli1 a:eGFP,-6.5kdrl:mCherry assessed as effect on cdh5 gene expression at 1.5 uM dosed starting from 16 hpf and measured at 24 and 48 hpf by qRT-PCR analysis; assay type: functional, organism-based

For `O=C(O)c1c(O)cccc1CCc1ccc2ccccc2c1`, the inhibition at 10 µM (L-type calcium channel) was -8%, the Activity (Danio rerio [1]) was “Active” and the inhibition [2] was -4%. It also gave an inhibition (Rattus norvegicus [3]) of 11%, an inhibition [4] of 0% and an inhibition [5] of 12%. The Activity (Danio rerio [6]) was “Active”, the inhibition [7] was -5% and the inhibition [8] was 8%. The inhibition (Rattus norvegicus [9]) was 1%, the inhibition [10] was -6% and the inhibition [11] was “inactive”. The inhibition [12] was -4.8%, the inhibition [13] was 1.1% and the inhibition [14] was 30%. For the same molecule, the inhibition [15] was “inactive”, the inhibition [16] was 0% and the inhibition [17] was “inactive”. The inhibition (Mus musculus) was 15%, the Activity (Danio rerio [18]) was “Active” and the inhibition (Cricetinae) was 10%. The Activity (Danio rerio [19]) was “Active”, the Activity [20] was “Active” and the CMC [21] was greater than 1000 µM. For the same molecule, the inhibition [22] was “inactive”, the inhibition [23] was 5.1% and the inhibition in vivo at 25 mg/kg/day (4T1.2) was 65%. For the same molecule, the inhibition [24] was 15%, the concentration at 240 h [25] was 38300 ng/mL and the inhibition [26] was -10%. The inhibition [27] was 36% and the Activity (Danio rerio [28]) was “Active”.
